Here are results for two compounds from patent US7119256B2, “Gene encoding acetolactate synthase” (priority 2000, dated 2006).

For orientation: IC50 means the point on the concentration scale where inhibition reaches its midpoint. For orientation: inhibition means the drop in the measured response relative to a control, in per cent.

Values joined by “and” are separate entries in the source; they are usually repeats but may differ in a detail not shown here. Equal entries are not always repeated.

Experiment [1] deals with mutant ALS protein. The experiment in a line: Herbicide sensitivity of ALS partially purified from the resistant mutant (acetoin colorimetric ALS activity). It counts as biochemical, rice (Kinmaze). The procedure: (§1) First, 200 g or more of resistant mutant was prepared by a liquid culture method (no supplementation with bispyribac-sodium), the culture having a composition as shown in Table 1 but without Gelrite. Then, about 150 g of the resistant mutant was homogenized using Hiscotron in a volume of buffer-1 [100 mM potassium phosphate buffer (pH 7.5) containing 20% (v/v) glycerol, 0.5 mM thiamin pyrophosphate (TPP), 10 μM flavin adenine dinucleotide (FAD), 0.5 mM MgCl2, and a volume of polyvinyl polypyrrolidone one-tenth that of tissue volume] 3-fold greater than tissue volume. The homogenate was filtered through nylon gauze, and then centrifuged at 15,000×g for 20 min. Ammonium sulfate was added to the centrifuged supernatant to 50% saturation, and then allowed to stand in ice for approximately 1 hour. The mixture was again centrifuged at 15,000×g for 20 min, and then the precipitated fraction was dissolved in about 30 ml of buffer-2 [10 mM Tris hydrochloric acid buffer (pH 7.5) containing 20% (v/v) glycerol, 0.5 mM TPP and 0.5 mM MgCl2]. […]
(§2) Next, the protein concentration of the crude enzyme solution was measured by the Bradford method according to the manual of Bio-Rad Protein Assay. […]
(§3) ALS activity resulting from the mutant ALS protein contained in the eluted fractions apportioned into each test tube for apportion was measured as follows. A reaction solution to be used in a measurement reaction was prepared by mixing an eluted fraction to be measured with a solution comprising 20 mM sodium pyruvate, 0.5 mM TPP, 0.5 mM MgCl2, 10 μM FAD and 20 mM potassium phosphate buffer (pH 7.5). […] After the eluted fraction to be measured was added, the measurement reaction was performed at 30° C. for 40 to 60 min. […]
(§4) Then, to quantify acetoin contained in the reaction solution, 1 ml of 0.5% (w/v) creatine and 1 ml of 5% (w/v) α-naphthol dissolved in 2.5 N sodium hydroxide was added to the reaction solution, followed by incubation at 37° C. for 10 min. Acetoin was then quantified by color comparison of the absorbance (at 525 nm) of the reaction solution, thereby evaluating ALS activity. […]

For experiment [2], the target named is T1, W548L mutant ALS (Oryza sativa subsp. japonica, UniProt Q6K2E8, W548L).
T1 construct: one type of cDNA containing a full length ALS gene could be obtained from a cDNA library derived from the wild type; made in house; host or cells: E. coli JM 109, pGEX-2T backbone (pGEX-2T-wALS); crude enzyme solution
T1 sequence (Q6K2E8 44-644 W548L): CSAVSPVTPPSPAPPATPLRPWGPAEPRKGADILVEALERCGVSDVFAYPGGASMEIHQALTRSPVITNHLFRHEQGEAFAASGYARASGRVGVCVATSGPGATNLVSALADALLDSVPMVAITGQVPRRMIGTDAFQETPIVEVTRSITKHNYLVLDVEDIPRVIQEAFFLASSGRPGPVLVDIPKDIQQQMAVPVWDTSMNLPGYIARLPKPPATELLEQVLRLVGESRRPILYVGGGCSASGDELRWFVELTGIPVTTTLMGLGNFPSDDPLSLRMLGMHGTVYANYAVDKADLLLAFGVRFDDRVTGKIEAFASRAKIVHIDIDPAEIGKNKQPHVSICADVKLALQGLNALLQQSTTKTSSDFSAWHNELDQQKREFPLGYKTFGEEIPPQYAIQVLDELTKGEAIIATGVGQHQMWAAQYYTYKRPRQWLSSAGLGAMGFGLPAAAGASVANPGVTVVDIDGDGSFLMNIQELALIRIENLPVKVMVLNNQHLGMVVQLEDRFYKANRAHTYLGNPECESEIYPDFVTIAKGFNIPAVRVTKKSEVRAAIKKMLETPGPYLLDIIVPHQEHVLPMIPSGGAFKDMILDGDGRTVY
The experiment in a line: Herbicide sensitivity of crude ALS with W548L mutation only, 1 mM valine. It is filed as biochemical, rice. The following applies: crude enzyme. The method, then:
(§5) A plasmid having W548L mutant ALS gene or a plasmid having S627I mutant ALS gene was transformed into E. coli strain JM 109. The colonies obtained from transformation were subjected to liquid culture, expression of GST induction protein was induced in the same manner as in Examples 4 and 5, a crude enzyme solution was prepared, and then herbicide sensitivity of ALS was examined in the presence of 1 mM valine.

The target in experiment [3] is T2, S627I mutant ALS (Oryza sativa subsp. japonica, UniProt Q6K2E8, S627I).
T2 construct: one type of cDNA containing a full length ALS gene could be obtained from a cDNA library derived from the wild type; made in house; host or cells: E. coli JM 109, pGEX-2T backbone; crude enzyme solution
T2 sequence (Q6K2E8 44-644 S627I): as the sequence (Q6K2E8 44-644 W548L) above, with L505W, S584I counted along it
The experiment in a line: Herbicide sensitivity of crude ALS with S627I mutation only, 1 mM valine. It counts as biochemical, rice. The following applies: crude enzyme. The method, then: as §5

Experiment [4] concerns the target mutant ALS protein (Oryza sativa subsp. japonica, UniProt Q6K2E8, S627I/W548L). Briefly: Herbicide sensitivity of ALS partially purified from the resistant mutant (acetoin colorimetric ALS activity). It is filed as biochemical, rice (Kinmaze). Also noted: from tissue; host or cells: resistant mutant rice (Kinmaze) cultured cells, liquid culture; ammonium sulfate, Sephadex G-25, HiTrap Q. The method, then:
as §1, §2, §3, §4

Experiment [5] deals with T3, wild type ALS protein (Oryza sativa subsp. japonica, UniProt Q6K2E8).
T3 sequence (Q6K2E8 44-644): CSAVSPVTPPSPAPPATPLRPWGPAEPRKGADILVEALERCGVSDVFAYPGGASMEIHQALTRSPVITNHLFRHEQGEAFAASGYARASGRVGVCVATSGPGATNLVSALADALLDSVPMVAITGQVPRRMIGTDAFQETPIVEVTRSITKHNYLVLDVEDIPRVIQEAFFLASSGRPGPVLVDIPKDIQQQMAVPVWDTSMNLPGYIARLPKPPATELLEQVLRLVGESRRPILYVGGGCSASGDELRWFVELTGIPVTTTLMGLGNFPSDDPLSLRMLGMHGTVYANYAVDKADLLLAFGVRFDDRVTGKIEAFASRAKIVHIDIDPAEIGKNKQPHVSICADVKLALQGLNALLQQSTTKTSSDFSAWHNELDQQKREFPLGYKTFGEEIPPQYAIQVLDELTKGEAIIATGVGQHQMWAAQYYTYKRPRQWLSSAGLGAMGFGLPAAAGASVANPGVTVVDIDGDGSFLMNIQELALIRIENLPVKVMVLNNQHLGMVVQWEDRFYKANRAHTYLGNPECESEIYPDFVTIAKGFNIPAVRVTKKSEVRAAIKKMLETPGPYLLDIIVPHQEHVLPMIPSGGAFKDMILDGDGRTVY
Briefly: Herbicide sensitivity of partially purified wild type ALS protein (acetoin colorimetric ALS activity). It is filed as biochemical, rice (Kinmaze). More on the design: the wild type ALS protein was separated and purified in the same manner and used for the experiment; from tissue; host or cells: wild type rice (Kinmaze) cultured cells, liquid culture; ammonium sulfate, Sephadex G-25, HiTrap Q.

Experiment [6] concerns the target T4, ALS isozyme I (Escherichia coli, UniProt P08142+P0ADF8).
T4 construct: CK1 (without plasmid); endogenous in cells
Briefly: Inhibition by valine of ALS activity derived from E. coli (no plasmid). It is filed as biochemical. The method, then:
ALS activity resulting from the mutant ALS protein contained in the eluted fractions apportioned into each test tube for apportion was measured as follows. A reaction solution to be used in a measurement reaction was prepared by mixing an eluted fraction to be measured with a solution comprising 20 mM sodium pyruvate, 0.5 mM TPP, 0.5 mM MgCl2, 10 μM FAD and 20 mM potassium phosphate buffer (pH 7.5). One ml of this reaction solution was used. After the eluted fraction to be measured was added, the measurement reaction was performed at 30° C. for 40 to 60 min. Then, the reaction was stopped by addition of 0.1 ml of 6N sulfuric acid (or 0.25 N sodium hydroxide).
The prepared ALS enzyme contains ALS activity derived from E. coli.

Setting [7] is: 1 mM Valine, E. coli without plasmid.

T4 sequence (P0ADF8 whole entry): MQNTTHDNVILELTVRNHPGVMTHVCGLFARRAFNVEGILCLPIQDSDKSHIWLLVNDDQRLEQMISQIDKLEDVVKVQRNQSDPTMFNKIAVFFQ
T4 sequence (P08142 whole entry): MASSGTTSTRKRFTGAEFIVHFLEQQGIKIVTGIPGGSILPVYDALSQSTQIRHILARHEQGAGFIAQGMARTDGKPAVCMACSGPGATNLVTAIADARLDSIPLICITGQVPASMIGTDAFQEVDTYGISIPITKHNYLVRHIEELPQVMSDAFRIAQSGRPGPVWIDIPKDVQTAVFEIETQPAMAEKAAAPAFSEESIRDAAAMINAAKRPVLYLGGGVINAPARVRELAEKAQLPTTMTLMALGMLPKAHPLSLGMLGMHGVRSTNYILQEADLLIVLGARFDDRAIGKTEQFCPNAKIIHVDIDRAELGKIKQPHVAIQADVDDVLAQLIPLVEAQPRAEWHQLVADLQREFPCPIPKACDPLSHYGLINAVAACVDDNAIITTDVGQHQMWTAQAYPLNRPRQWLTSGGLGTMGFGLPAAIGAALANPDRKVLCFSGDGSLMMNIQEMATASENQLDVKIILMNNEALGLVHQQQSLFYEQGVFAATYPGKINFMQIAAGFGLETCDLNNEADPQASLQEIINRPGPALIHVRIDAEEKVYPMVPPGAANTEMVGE
Chain of mutant ALS protein (Oryza sativa subsp. japonica, UniProt Q6K2E8, S627I/W548L) (Q6K2E8 44-644 W548L/S627I): as the sequence (Q6K2E8 44-644 W548L) above, with S584I counted along it

Consider `CC(C)C1(C)N=C(c2nc3ccccc3cc2C(=O)O)NC1=O` (stereo not drawn) [Imazaquin, imazaquin], for which the “RS ratio Resistant mutant: I50 (resistant mutant)/I50 (wild type)” value in experiment [1] was 11.3. Also, the “resistance imparted by W548L mutation alone” value in experiment [2] was “results were similar to those for bispyribac-sodium”. Further, in experiment [3], the “resistance imparted by S627I mutation alone” value was “results were similar to those for bispyribac-sodium”. Also, the half-maximal inhibitory concentration (IC50) worked out at 16.7 µM in experiment [4] and 1.48 µM in experiment [5].
In the case of `CC(C)[C@H](N)C(=O)O` [Valine, valine], in experiment [6] (setting [7]), the ALS activity is 0.1768 OD525/40 min/0.05 ml and 0.1831 OD525/40 min/0.05 ml; the Inhibition rate was 88%. For the same compound, the inhibition at 1000 µM in experiment [6] (1 mM Valine, E. coli without plasmid, read-out: Inhibition rate) came out at 86%. The “inhibition of ALS activity derived from E. coli” value in experiment [6] (1 mM valine) is recorded as “almost completely inhibited”.
